The test system of test [1] is Acinetobacter baumannii. Briefly: Antimicrobial activity against Acinetobacter baumannii ATCC 17978 expressing mcr1 gene incubated for overnight duration by CLSI based method. The format is functional, organism-based.
In test [2] the test system is Klebsiella pneumoniae. The test is described as follows: Antimicrobial activity against Klebsiella pneumoniae 2210291 expressing mcr1 gene incubated for overnight duration by CLSI based method. The format is functional, organism-based.
Test [3] deals with Acinetobacter baumannii. The test is described as follows: Antimicrobial activity against Acinetobacter baumannii SM1536 incubated for overnight duration by CLSI based method. It counts as functional, organism-based.
In test [4] the test system is Escherichia coli. The test is described as follows: Antimicrobial activity against Escherichia coli YD626 incubated for overnight duration by CLSI based method. It counts as functional, organism-based.
The test system of test [5] is Escherichia coli. The test is described as follows: Antimicrobial activity against Escherichia coli ATCC 25922 incubated for overnight duration by CLSI based method. The format is functional, organism-based.
Test [6] deals with Acinetobacter baumannii. The test is described as follows: Antimicrobial activity against Acinetobacter baumannii SM1536 expressing mcr1 gene incubated for overnight duration by CLSI based method. It counts as functional, organism-based.
Test [7] relates to Acinetobacter baumannii. Briefly: Antimicrobial activity against Acinetobacter baumannii ATCC 17978 incubated for overnight duration by CLSI based method. The format is functional, organism-based.
Test [8] deals with Escherichia coli. Briefly: Antimicrobial activity against Escherichia coli YD626 expressing mcr1 gene incubated for overnight duration by CLSI based method. It counts as functional, organism-based.
The test system of test [9] is Klebsiella pneumoniae. Briefly: Antimicrobial activity against Klebsiella pneumoniae 2210291 incubated for overnight duration by CLSI based method. It counts as functional, organism-based.
Test [10] has as its system Escherichia coli. The test is described as follows: Antimicrobial activity against Escherichia coli ATCC 25922 expressing mcr1 gene incubated for overnight duration by CLSI based method. It counts as functional, organism-based.
For test [11], the system named is Acinetobacter baumannii. The test is described as follows: Potentiation of colistin-induced antimicrobial activity against Acinetobacter baumannii ATCC 17978 expressing mcr1 gene assessed as reduction in colistin MIC at 60 uM incubated for overnight duration by CLSI based method relative to colistin alone control. It counts as functional.

As for COLISTIN, the MIC – broadly, the smallest concentration in the dilution series that meets the test's criterion for growth inhibition – turned out to be 16 µg/mL in the test with Acinetobacter baumannii [1]; 16 µg/mL against Klebsiella pneumoniae [2]; 2 µg/mL in the test with Acinetobacter baumannii [3]; 1 µg/mL against Escherichia coli [4]; 1 µg/mL in the test with Escherichia coli [5]; 64 µg/mL against Acinetobacter baumannii [6]. Besides, the MIC in the test on Acinetobacter baumannii [7] was determined as 2 µg/mL; against Escherichia coli [8], 4 µg/mL; with Klebsiella pneumoniae [9] it was 1 µg/mL; against Escherichia coli [10], 8 µg/mL.

For the compound `O=C(NCCc1c[nH]c2ccccc12)c1cc(Cl)c(Cl)[nH]1`, the “fold change (FC)” value in the test on Acinetobacter baumannii [11] was 32.

The values above are taken from ChEMBL document CHEMBL4177586, “Small molecule adjuvants that suppress both chromosomal and mcr-1 encoded colistin-resistance and amplify colistin efficacy in polymyxin-susceptible bacteria” (Bioorg Med Chem, 2017).
